Holding throughout (type): biochemical
In one assay the target is T1, ABHD6 (Mus musculus, UniProt Q8R2Y0).
T1 construct: from tissue; host or cells: mouse brain, membrane fraction
T1 sequence (Q8R2Y0 1-336): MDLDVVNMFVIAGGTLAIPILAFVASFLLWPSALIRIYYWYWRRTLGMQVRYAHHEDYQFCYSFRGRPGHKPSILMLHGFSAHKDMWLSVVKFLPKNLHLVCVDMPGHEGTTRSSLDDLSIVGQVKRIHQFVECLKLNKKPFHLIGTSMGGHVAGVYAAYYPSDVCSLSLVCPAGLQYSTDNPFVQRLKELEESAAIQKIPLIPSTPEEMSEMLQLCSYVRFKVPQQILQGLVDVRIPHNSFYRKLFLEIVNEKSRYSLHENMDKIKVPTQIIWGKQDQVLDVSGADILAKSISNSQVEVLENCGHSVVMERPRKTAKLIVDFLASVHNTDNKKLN
The assay is described as follows: Gel-based competitive ABPP in vitro, mouse brain membrane proteome. To be noted: for ABHD6 in vitro enzyme activity, % @ 20 μM: mouse brain (mem) proteome. The method, then: (§1) Assay Overview: The purpose of this assay was to determine whether test compounds can inhibit LYPLA1 and LYPLA2 in a complex proteomic lysate and to assess anti-target inhibition using a competitive activity-based proteomic profiling (ABPP) assay. In this assay, a complex proteome endogenously expressing LYPLA1/2 was incubated with test compound followed by reaction with a rhodamine-conjugated fluorophosphonate (FP-Rh) serine-hydrolase specific activity-based probe. The reaction products were separated by SDS-PAGE and visualized in-gel using a flatbed fluorescence scanner. The percentage activity remaining was determined by measuring the integrated optical density of the bands. […] Percent inhibition was calculated relative to a DMSO (no compound) control.
(§2) Protocol Summary: Mouse brain membrane proteome (50 μL reaction volume, 1 mg/mL in DPBS) was treated with 0.1-100 μM test compound (1 μL of a 50× stock in DMSO) for 30 minutes at 37° C. FP-Rh (1 μL of 50× stock in DMSO, Thermo #88318) was added to a final concentration of 2 μM. The reactions were incubated for 30 minutes at 25° C., quenched with 16 μL 4×SDS-PAGE loading buffer (reducing), separated by SDS-PAGE and visualized by in-gel fluorescent scanning. The percentage activity remaining was determined by measuring the integrated optical density of the bands relative to a DMSO-only (no compound) control. Assay Cutoff: Compounds with ≥50% inhibition of targets at 1 μM test compound concentration were considered active.
Assay Overview: The purpose of this assay was to determine IC50 values of powder samples of test compounds for enzyme of interest activity, and anti-targets in a complex proteomic lysate using a gel-based competitive ABPP assay. In this assay, a complex proteome was incubated with test compound followed by reaction with FP-Rh and SDS-PAGE analysis as described above.
Protocol Summary: Soluble HeLa cell proteome (50 μL reaction volume, 1 mg/mL in DPBS) or mouse brain membrane proteome (50 μL reaction volume, 1 mg/mL in DPBS) was treated with varying concentrations of test compound (1 μL of a 50× stock in DMSO) for 30 minutes at 37° C. FP-Rh (1 μL of 50× stock in DMSO) was added to a final concentration of 2 μM. The reaction was incubated for 30 minutes at 25° C., quenched with 16 μL 4×SDS-PAGE loading buffer (reducing), separated by SDS-PAGE and visualized by in-gel fluorescent scanning. The percentage activity remaining was determined by measuring the integrated optical density of the enzymes of interest, and anti-target bands relative to a DMSO-only (no compound) control. IC50 values were determined from dose-response curves from three replicates at each inhibitor concentration: 1, 10, 100, 1000, 10000 nM and 0.01, 0.1, 1, 10, 100, 1000, 10000, 50000, and 100000 nM.

The next assay has as its target T2, LYPLA1 (Mus musculus, UniProt P97823).
T2 construct: a complex proteome endogenously expressing LYPLA1/2 was incubated with test compound; from tissue; host or cells: mouse brain, membrane fraction
Described as above. The following applies: for LYPLA1 in vitro enzyme activity, % @ 20 μM: mouse brain (mem) proteome; for inhibition at 1 µM: 1 μM compound, read-out: LYPLA1 % INH 1 μM; for inhibition at 1 µM / inhibition at 10 µM / inhibition at 100 µM / inhibition at 0.1 µM: 30 min, one replicate; for inhibition at 10 µM: 10 μM compound, read-out: LYPLA1 % INH 10 μM; for inhibition at 100 µM: 100 μM compound, read-out: LYPLA1 % INH 100 μM; for inhibition at 0.1 µM: 0.1 μM compound, read-out: LYPLA1 % INH 0.1 μM. The method, then: as §1, §2
(§3) N-Hydroxy bicyclic hydantoin carbamates (Compounds 1-20) listed in Table 1 were subjected to gel-based competitive ABPP screening to assess SH reactivity against more than 20 FP-sensitive SHs visible by 1D SDS-PAGE separation and fluorescent detection in the mouse brain proteome (see FIG. 1). […] Compound treatment ([…], 30 minutes) was followed by labeling with SH-specific ABPP probe FP-Rh (2 μM, 30 minutes), 1D-SDS-PAGE, and in-gel fluorescent visualization of FP-labeled proteins. Assignment of LYPLA1/2 bands was based on correlation of molecular weights, expression and inhibition profiles with LC-MS/MS data and recombinant enzyme expression. Proteins were listed as anti-targets if at least 50% inhibition was observed as quantified relative to the DMSO control.
(§4) Compounds 1-20 were subjected to gel-based competitive ABPP profiling to assess potency and selectivity against several dozen FP-sensitive SHs in the mouse brain membrane proteome, which endogenously expresses LYPLA1 and LYPLA2, as well a diversity of potential SH anti-targets. Compounds were tested at 100 μM, 10 μM, 1 μM, and/or 0.1 μM compound concentration.

A further assay deals with T3, LYPLA2 (Mus musculus, UniProt Q9WTL7).
T3 construct: a complex proteome endogenously expressing LYPLA1/2 was incubated with test compound; from tissue; host or cells: mouse brain, membrane fraction
T3 sequence (Q9WTL7 whole entry): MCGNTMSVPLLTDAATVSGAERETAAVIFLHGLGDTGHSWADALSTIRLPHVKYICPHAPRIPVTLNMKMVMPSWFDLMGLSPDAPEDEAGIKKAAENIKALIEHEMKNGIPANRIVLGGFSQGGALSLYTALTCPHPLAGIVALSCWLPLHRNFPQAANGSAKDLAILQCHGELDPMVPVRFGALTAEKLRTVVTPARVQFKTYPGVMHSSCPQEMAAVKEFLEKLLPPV
The description is as above. To be noted: for LYPLA2 in vitro enzyme activity, % @ 20 μM: mouse brain (mem) proteome; for inhibition at 1 µM: 1 μM compound, read-out: LYPLA2 % INH 1 μM; for inhibition at 1 µM / inhibition at 10 µM / inhibition at 100 µM / inhibition at 0.1 µM: 30 min, one replicate; for inhibition at 10 µM: 10 μM compound, read-out: LYPLA2 % INH 10 μM; for inhibition at 100 µM: 100 μM compound, read-out: LYPLA2 % INH 100 μM; for inhibition at 0.1 µM: 0.1 μM compound, read-out: LYPLA2 % INH 0.1 μM. The method, then:
as §1, §2, §3, §4

Assay [1] deals with FP-sensitive SHs in the mouse brain membrane proteome. The assay can be described thus: Gel-based competitive ABPP in vitro, mouse brain membrane proteome, anti-targets. To be noted: for Anti-target(s) 1 μM: SHs with at least 50% inhibition at 1 μM compound; for Anti-target(s) 10 μM: SHs with at least 50% inhibition at 10 μM compound; for Anti-target(s) 100 μM: SHs with at least 50% inhibition at 100 μM compound; for Anti-target(s) 0.1 μM: SHs with at least 50% inhibition at 0.1 μM compound. On the procedure: as §1, §2, §3, §4

SMILES strings stand for the structures. Entries after “also recorded” stand apart in the source; their conditions may differ.

T2 sequence (P97823 whole entry): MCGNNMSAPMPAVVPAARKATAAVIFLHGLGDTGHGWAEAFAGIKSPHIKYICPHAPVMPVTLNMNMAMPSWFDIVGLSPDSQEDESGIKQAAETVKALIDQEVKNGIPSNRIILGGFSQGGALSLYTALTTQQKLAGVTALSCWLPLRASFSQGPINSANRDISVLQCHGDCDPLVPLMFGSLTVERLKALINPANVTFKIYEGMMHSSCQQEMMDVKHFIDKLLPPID

As to `COc1ccc(N2CCN(C(=O)ON3C(=O)NC(C(C)C)C3=O)CC2)cc1` (stereo not shown) [MJN193, 4-isopropyl-2,5-dioxoimidazolidin-1-yl 4-(4-methoxyphenyl)piperazine-1-carboxylate], at ABHD6 (mouse brain membrane SHs, FIG. 7B), the “potency and selectivity for ABHD6, concentration-dependent profiling” value was “good potency and selectivity”.

Consider `COc1ccc(N2CCN(C(=O)ON3C(=O)C4CN(C)CCN4C3=O)CC2)cc1` (stereo not shown) [Compound 23, 7-methyl-1,3-dioxohexahydroimidazo[1,5-a]pyrazin-2(3H)-yl 4-(4-methoxyphenyl)piperazine-1-carboxylate], for which the “LYPLA1 in vitro enzyme activity, % @ 20 μM” value at LYPLA1 came out at 0% @. For the same compound, on LYPLA2, the “LYPLA2 in vitro enzyme activity, % @ 20 μM” value came to 0% @. Also, on ABHD6, the “ABHD6 in vitro enzyme activity, % @ 20 μM” value was 100% @.

In the case of `Cc1ccc(C(=O)N2CCN3C(=O)N(OC(=O)N4CCC(CCc5ccc(Cl)cc5)CC4)C(=O)C3C2)cc1` (stereo not shown) [Compound 8, 7-(4-methylbenzoyl)-1,3-dioxohexahydroimidazo[1,5-a]pyrazin-2(3H)-yl 4-(4-chlorophenethyl)piperidine-1-carboxylate], on LYPLA1, the inhibition at 1 µM was determined as 75%, the inhibition at 10 µM was found to be 100% and the inhibition at 100 µM was found to be 100%. Besides, at LYPLA2, the inhibition at 1 µM was found to be 75%, the inhibition at 10 µM is 100% and the inhibition at 100 µM was determined as 100%. Besides, in assay [1], the “Anti-target(s) 1 μM” value is “ABHD6”, the “Anti-target(s) 10 μM” value was “FAAH,; also recorded: ABHD12,; also recorded: ABHD6” and the “Anti-target(s) 100 μM” value is recorded as “FAAH,; also recorded: ABHD12,; also recorded: MAGL,; also recorded: ABHD6”.

Take `CCN(C(=O)C1CCN(C(=O)ON2C(=O)C3CN(C(=O)OC(C)(C)C)CCN3C2=O)CC1)c1ccccc1` (stereo not shown) [Compound 20, tert-butyl 2-(4-(ethyl(phenyl)carbamoyl)piperidine-1-carbonyloxy)-1,3-dioxohexahydroimidazo[1,5-a]pyrazine-7(1H)-carboxylate]: on LYPLA1, the inhibition at 0.1 µM turned out to be 0%, the inhibition at 1 µM is 10%, the inhibition at 10 µM came out at 100% and the inhibition at 100 µM was 100%. On LYPLA2, the inhibition at 0.1 µM was found to be 0%, the inhibition at 1 µM was found to be 10%, the inhibition at 10 µM is 75% and the inhibition at 100 µM was 100%. Besides, in assay [1], the “Anti-target(s) 0.1 μM” value was “ABHD6”, the “Anti-target(s) 1 μM” value is reported as “ABHD6”, the “Anti-target(s) 10 μM” value is “ABHD6” and the “Anti-target(s) 100 μM” value is listed as “ABHD6”.

On to `CC(C)(C)OC(=O)N1CCN2C(=O)N(OC(=O)N3CCCCC3)C(=O)C2C1` (stereo not shown) [Compound 14, tert-butyl 1,3-dioxo-2-(piperidine-1-carbonyloxy)hexahydroimidazo[1,5-a]pyrazine-7(1H)-carboxylate], for which, at LYPLA1, the inhibition at 0.1 µM came out at 0%, the inhibition at 1 µM was 0%, the inhibition at 10 µM is 0% and the inhibition at 100 µM came out at 25%. Also, on LYPLA2, the inhibition at 0.1 µM amounted to 0%, the inhibition at 1 µM was found to be 0%, the inhibition at 10 µM stood at 0% and the inhibition at 100 µM worked out at 25%. In addition, in assay [1], the “Anti-target(s) 0.1 μM” value is on record as “ABHD6”, the “Anti-target(s) 1 μM” value is reported as “ABHD6”, the “Anti-target(s) 10 μM” value is listed as “ABHD6” and the “Anti-target(s) 100 μM” value is recorded as “APEH,; also recorded: ABHD6”.

Regarding `CC(C)(C)OC(=O)N1CCN2C(=O)N(OC(=O)N3CCN(CCc4ccccc4)CC3)C(=O)C2C1` (stereo not shown) [Compound 17, tert-butyl 1,3-dioxo-2-(4-phenethylpiperazine-1-carbonyloxy)hexahydroimidazo[1,5-a]pyrazine-7(1H)-carboxylate], at LYPLA1, the inhibition at 0.1 µM stood at 0%, the inhibition at 1 µM is 0%, the inhibition at 10 µM was 75% and the inhibition at 100 µM was determined as 90%. Further, on LYPLA2, the inhibition at 0.1 µM came out at 0%, the inhibition at 1 µM worked out at 0%, the inhibition at 10 µM came to 50% and the inhibition at 100 µM was found to be 75%. Besides, in assay [1], the “Anti-target(s) 0.1 μM” value was “ABHD6”, the “Anti-target(s) 1 μM” value is reported as “ABHD6”, the “Anti-target(s) 10 μM” value was “ABHD6” and the “Anti-target(s) 100 μM” value is on record as “FAAH,; also recorded: ABHD12,; also recorded: ABHD6”.

`COc1ccc(N2CCN(C(=O)ON3C(=O)C4CN(C(=O)OC(C)(C)C)CCN4C3=O)CC2)cc1` (stereo not shown) [Compound 21, tert-butyl 2-((4-(4-methoxyphenyl)piperazine-1-carbonyl)oxy)-1,3-dioxohexahydroimidazo[1,5-a]pyrazine-7(1H)-carboxylate]: on LYPLA1, the “LYPLA1 in vitro enzyme activity, % @ 20 μM” value was 0% @. Also, the “LYPLA2 in vitro enzyme activity, % @ 20 μM” value on LYPLA2 is 0% @. Also, the “ABHD6 in vitro enzyme activity, % @ 20 μM” value at ABHD6 amounted to 100% @.
